Assay results published in PMC6881293, “Nanomolar-potency ‘co-potentiator’ therapy for cystic fibrosis caused by a defined subset of minimal function CFTR mutants” (Scientific Reports, 2019).

Key:
I1234del-CFTR = molecular target: T1, I1234del-CFTR (Homo sapiens, UniProt P13569, DEL1234-1239); experiment: Short-circuit current in FRT cells expressing I1234del-CFTR; type: cell-based; conditions: I1234del-CFTR FRT cells; 20 µM forskolin, 5 µM VX-770, 20 µM ASP-11; range stated jointly for I1234del- and Q1313X-CFTR
T1 construct: introduced into full-length CFTR cDNA in the vector pcDNA3.1/Zeo (+); expressed in transfected cells
Description: (§1) Figure 1 Co-potentiator ASP-11 activity in minimal function CFTR mutants in transfected FRT cells. (A) Structure of ASP-11. (B) Location of minimal function CFTR mutants studied herein. (C) Representative short-circuit current data in FRT cells expressing I1234del-CFTR, Q1313X-CFTR and S492F-CFTR in response to 20 µM forskolin (fsk), 5 µM VX-770, 20 µM ASP-11 and 10 μM CFTRinh-172. As indicated, cells were treated with 3 µM VX-809 for 18–24 h prior to measurements. (n = 3) (D). Representative short-circuit current data in FRT cells expressing predicted W1282X-CFTR read-through products W1282L-CFTR, W1282R-CFTR and W1282C-CFTR (without and with VX-809 pretreatment) (n = 3). MSD, membrane spanning domain; NBD, nucleotide binding domain; R, regulatory domain.
(§2) As shown in Fig. 1C and summarized in Fig. 2, ASP-11 acted in synergy with VX-770 to increase chloride current in FRT cells expressing the NBD2 mutations I1234del- and Q1313X-CFTR by ~3–9-fold compared to VX-770. I1234del- and Q1313X-CFTR-expressing cells were also treated with VX-809 for 24 hours (to consider the effect of available CFTR therapeutics) with 2–3-fold greater currents observed.
(§3) Short-circuit current was measured on cells cultured on Snapwell clear permeable supports (Corning) as described[10],[11]. […]

S492F-CFTR = molecular target: T2, S492F-CFTR (Homo sapiens, UniProt P13569, S492F); experiment: Short-circuit current in FRT cells expressing S492F-CFTR; type: cell-based; conditions: 20 µM forskolin, 5 µM VX-770, 20 µM ASP-11, 3 µM VX-809 for 18–24 h
T2 construct: expressed in transfected cells; host or cells: Fischer rat thyroid (FRT) cells; gift from Drs; Andras Rab and Jeong Hong (Emory University)
Description: as §1, §2
Short-circuit current was measured on cells cultured on Snapwell clear permeable supports (Corning) as described[10],[11]. Hemichambers were connected to a DVC-1000 voltage clamp (World Precision Instruments Inc., Sarasota, FL) via Ag/AgCl electrodes and 3 M KCl agar bridges for recording of the short-circuit current. For human airway epithelial cells, symmetrical HCO3^−-buffered solutions (in mM: 120 NaCl, 5 KCl, 1 MgCl2, 1 CaCl2, 5 Hepes, 25 NaHCO3, 10 glucose, pH 7.4) for basolateral and apical side were used. For FRT cells, the basolateral membrane was permeabilized with 250 μg/ml amphotericin B, and experiments were done with a chloride gradient using a HCO3^−-buffered solutions (Basolateral (mM): 120 NaCl, 5 KCl, 1 MgCl2, 1 CaCl2, 5 Hepes, 25 NaHCO3, 10 glucose, pH 7.4; apical (mM): 60 NaCl, 60 mM sodium gluconate, 5 KCl, 1 MgCl2, 1 CaCl2, 5 Hepes, 25 NaHCO3, 10 glucose, pH 7.4). […]

R1162X-CFTR = molecular target: T3, R1162X-CFTR (Homo sapiens, UniProt P13569); experiment: Short-circuit current in FRT cells expressing R1162X-CFTR; type: cell-based; conditions: 5 µM VX-770, 20 µM ASP-11, 3 µM VX-809 overnight
T3 construct: expressed in transfected cells; host or cells: Fischer rat thyroid (FRT) cells; gift from Drs; Andras Rab and Jeong Hong (Emory University)
Description: as §2
(§4) Figure 2 Summary of short-circuit current responses to modulators for CFTR mutants in transfected FRT cells. Responses to indicated CFTR mutants with 20 μM forskolin, 5 µM VX-770, 20 µM ASP-11 (with or without 3 µM VX-809 overnight). For reference, data shown for cells expressing wild type CFTR. Mean ± S.E.M., n = 3.
Short-circuit current was measured on cells cultured on Snapwell clear permeable supports (Corning) as described[10],[11]. Hemichambers were connected to a DVC-1000 voltage clamp (World Precision Instruments Inc., Sarasota, FL) via Ag/AgCl electrodes and 3 M KCl agar bridges for recording of the short-circuit current. For human airway epithelial cells, symmetrical HCO3^−-buffered solutions (in mM: 120 NaCl, 5 KCl, 1 MgCl2, 1 CaCl2, 5 Hepes, 25 NaHCO3, 10 glucose, pH 7.4) for basolateral and apical side were used. For FRT cells, the basolateral membrane was permeabilized with 250 μg/ml amphotericin B, and experiments were done with a chloride gradient using a HCO3^−-buffered solutions (Basolateral (mM): 120 NaCl, 5 KCl, 1 MgCl2, 1 CaCl2, 5 Hepes, 25 NaHCO3, 10 glucose, pH 7.4; apical (mM): 60 NaCl, 60 mM sodium gluconate, 5 KCl, 1 MgCl2, 1 CaCl2, 5 Hepes, 25 NaHCO3, 10 glucose, pH 7.4). All cells were equilibrated with 95% O2, 5% CO2 and maintained at 37 °C during experiments.

R560T-CFTR = molecular target: T4, R560T-CFTR (Homo sapiens, UniProt P13569, R560T); experiment: Short-circuit current in FRT cells expressing R560T-CFTR; type: cell-based; conditions: 20 μM forskolin, 5 µM VX-770, 20 µM ASP-11
T4 construct: expressed in transfected cells; host or cells: Fischer rat thyroid (FRT) cells; gift from Drs; Andras Rab and Jeong Hong (Emory University)
Description: as §2, §4
(§5) Short-circuit current was measured on cells cultured on Snapwell clear permeable supports (Corning) as described[10],[11]. Hemichambers were connected to a DVC-1000 voltage clamp (World Precision Instruments Inc., Sarasota, FL) via Ag/AgCl electrodes and 3 M KCl agar bridges for recording of the short-circuit current. For human airway epithelial cells, symmetrical HCO3^−-buffered solutions (in mM: 120 NaCl, 5 KCl, 1 MgCl2, 1 CaCl2, 5 Hepes, 25 NaHCO3, 10 glucose, pH 7.4) for basolateral and apical side were used. […]

L1077P-CFTR = molecular target: T5, L1077P-CFTR (Homo sapiens, UniProt P13569, L1077P); experiment: Short-circuit current in FRT cells expressing L1077P-CFTR; type: cell-based; conditions: 20 μM forskolin, 5 µM VX-770, 20 µM ASP-11
T5 construct: expressed in transfected cells; host or cells: Fischer rat thyroid (FRT) cells; gift from Drs; Andras Rab and Jeong Hong (Emory University)
Description: as §2, §4, §5

W1282L-CFTR = molecular target: T6, W1282L-CFTR (Homo sapiens, UniProt P13569, W1282L); experiment: Short-circuit current in FRT cells expressing W1282L-CFTR; type: cell-based; conditions: 20 µM forskolin, 5 µM VX-770, 20 µM ASP-11
T6 construct: introduced into full-length CFTR cDNA in the vector pcDNA3.1/Zeo (+); expressed in transfected cells
Description: as §1
(§6) Compounds that promote read-through of PTCs to generate full-length CFTR have shown limited efficacy in cell culture studies[15]–[17]. Though the read-through drug ataluren (PTC124) was ineffective in clinical trials, newer compounds are in development. We investigated the ability of ASP-11 to activate chloride current in predicted W1282X-CFTR read-through products. […] FRT cell lines were generated that stably expressing W1282L-, W1282C- and W1282R-CFTR.
as §3

W1282C-CFTR = molecular target: T7, W1282C-CFTR (Homo sapiens, UniProt P13569, W1282C); experiment: Short-circuit current in FRT cells expressing W1282C-CFTR; type: cell-based; conditions: 20 µM forskolin, 5 µM VX-770, 20 µM ASP-11
T7 construct: introduced into full-length CFTR cDNA in the vector pcDNA3.1/Zeo (+); expressed in transfected cells
Description: as §1, §6, §3

W1282X-CFTR [1] = molecular target: T8, W1282X-CFTR (Homo sapiens, UniProt P13569); set-up: method as in PMID 27895116, PMID 29903467; conditions: transfected FRT cells expressing CFTR1281 (truncation product of W1282X-CFTR); cited from earlier work
T8 construct: expressed in transfected cells

W1282X-CFTR [2] = molecular target: T8, W1282X-CFTR; experiment: Structure-activity testing of analogs in FRT cells expressing W1282X-CFTR; type: cell-based
Description: To establish structure-activity relationships, 240 commercially available piperidinepyridoindole analogs and 160 pyrazoloquinoline analogs were tested in FRT cells expressing W1282X-CFTR. In general, the methoxy substituent on the 4-position (R^3) on the pyridoindole ring increased potency (compare A01 vs A534). N-methylation on the pyridoindole ring abolished activity (compare A534 vs A600). For substituent R^1 on the piperidine ring, substituted benzyl gave greatest activity (A061 and A662). Other R^1 substituents, including sulfonamide (A145), alkyl (A764) and carbocyclic (A714), reduced activity. Changing the benzylic carbon from methylene (CH2) to ketone (C=O) abolished activity (A815, A350 and A956).
For R^3, pyridine (D003), benzyl (D035) and substituted methyl-pyrazole (D086) abolished activity. […] The D123 pyrazoloquinoline with R^3 substituted with thiophene-quinoline heterocycle gave the best potency.

T8 sequence (P13569 1-1281 limits assumed): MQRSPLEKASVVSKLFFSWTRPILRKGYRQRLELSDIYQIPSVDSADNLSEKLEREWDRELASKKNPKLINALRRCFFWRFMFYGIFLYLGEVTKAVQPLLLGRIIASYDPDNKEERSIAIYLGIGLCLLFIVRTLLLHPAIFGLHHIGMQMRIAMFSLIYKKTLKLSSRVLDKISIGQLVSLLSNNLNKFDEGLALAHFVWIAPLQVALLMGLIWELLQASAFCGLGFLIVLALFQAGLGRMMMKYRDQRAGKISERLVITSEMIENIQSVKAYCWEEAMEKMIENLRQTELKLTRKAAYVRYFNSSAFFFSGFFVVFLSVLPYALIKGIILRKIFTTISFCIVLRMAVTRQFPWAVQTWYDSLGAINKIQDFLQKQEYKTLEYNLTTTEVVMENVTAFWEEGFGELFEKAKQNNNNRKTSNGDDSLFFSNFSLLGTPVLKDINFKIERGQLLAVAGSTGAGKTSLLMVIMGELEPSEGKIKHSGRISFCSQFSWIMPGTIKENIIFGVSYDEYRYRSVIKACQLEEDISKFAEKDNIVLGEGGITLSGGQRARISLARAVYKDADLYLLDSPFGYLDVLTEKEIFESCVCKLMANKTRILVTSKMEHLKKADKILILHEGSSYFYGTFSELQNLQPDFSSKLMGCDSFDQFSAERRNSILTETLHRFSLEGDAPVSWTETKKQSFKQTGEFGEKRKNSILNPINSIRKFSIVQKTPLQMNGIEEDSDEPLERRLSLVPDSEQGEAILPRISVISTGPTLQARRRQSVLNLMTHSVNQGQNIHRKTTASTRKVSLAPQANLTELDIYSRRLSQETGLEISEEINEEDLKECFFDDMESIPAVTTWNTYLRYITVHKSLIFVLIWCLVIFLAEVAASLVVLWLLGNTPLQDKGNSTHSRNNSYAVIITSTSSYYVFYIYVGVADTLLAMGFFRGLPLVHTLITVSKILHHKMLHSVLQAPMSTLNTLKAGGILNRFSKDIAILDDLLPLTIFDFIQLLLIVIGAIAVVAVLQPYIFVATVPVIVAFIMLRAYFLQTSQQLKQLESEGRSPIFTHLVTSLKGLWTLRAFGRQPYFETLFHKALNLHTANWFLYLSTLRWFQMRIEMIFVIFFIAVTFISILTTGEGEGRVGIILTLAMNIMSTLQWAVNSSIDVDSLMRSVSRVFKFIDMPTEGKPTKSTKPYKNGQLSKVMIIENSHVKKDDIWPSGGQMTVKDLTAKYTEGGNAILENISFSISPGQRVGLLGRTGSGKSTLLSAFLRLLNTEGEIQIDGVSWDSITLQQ
T7 sequence (P13569 whole entry W1282C): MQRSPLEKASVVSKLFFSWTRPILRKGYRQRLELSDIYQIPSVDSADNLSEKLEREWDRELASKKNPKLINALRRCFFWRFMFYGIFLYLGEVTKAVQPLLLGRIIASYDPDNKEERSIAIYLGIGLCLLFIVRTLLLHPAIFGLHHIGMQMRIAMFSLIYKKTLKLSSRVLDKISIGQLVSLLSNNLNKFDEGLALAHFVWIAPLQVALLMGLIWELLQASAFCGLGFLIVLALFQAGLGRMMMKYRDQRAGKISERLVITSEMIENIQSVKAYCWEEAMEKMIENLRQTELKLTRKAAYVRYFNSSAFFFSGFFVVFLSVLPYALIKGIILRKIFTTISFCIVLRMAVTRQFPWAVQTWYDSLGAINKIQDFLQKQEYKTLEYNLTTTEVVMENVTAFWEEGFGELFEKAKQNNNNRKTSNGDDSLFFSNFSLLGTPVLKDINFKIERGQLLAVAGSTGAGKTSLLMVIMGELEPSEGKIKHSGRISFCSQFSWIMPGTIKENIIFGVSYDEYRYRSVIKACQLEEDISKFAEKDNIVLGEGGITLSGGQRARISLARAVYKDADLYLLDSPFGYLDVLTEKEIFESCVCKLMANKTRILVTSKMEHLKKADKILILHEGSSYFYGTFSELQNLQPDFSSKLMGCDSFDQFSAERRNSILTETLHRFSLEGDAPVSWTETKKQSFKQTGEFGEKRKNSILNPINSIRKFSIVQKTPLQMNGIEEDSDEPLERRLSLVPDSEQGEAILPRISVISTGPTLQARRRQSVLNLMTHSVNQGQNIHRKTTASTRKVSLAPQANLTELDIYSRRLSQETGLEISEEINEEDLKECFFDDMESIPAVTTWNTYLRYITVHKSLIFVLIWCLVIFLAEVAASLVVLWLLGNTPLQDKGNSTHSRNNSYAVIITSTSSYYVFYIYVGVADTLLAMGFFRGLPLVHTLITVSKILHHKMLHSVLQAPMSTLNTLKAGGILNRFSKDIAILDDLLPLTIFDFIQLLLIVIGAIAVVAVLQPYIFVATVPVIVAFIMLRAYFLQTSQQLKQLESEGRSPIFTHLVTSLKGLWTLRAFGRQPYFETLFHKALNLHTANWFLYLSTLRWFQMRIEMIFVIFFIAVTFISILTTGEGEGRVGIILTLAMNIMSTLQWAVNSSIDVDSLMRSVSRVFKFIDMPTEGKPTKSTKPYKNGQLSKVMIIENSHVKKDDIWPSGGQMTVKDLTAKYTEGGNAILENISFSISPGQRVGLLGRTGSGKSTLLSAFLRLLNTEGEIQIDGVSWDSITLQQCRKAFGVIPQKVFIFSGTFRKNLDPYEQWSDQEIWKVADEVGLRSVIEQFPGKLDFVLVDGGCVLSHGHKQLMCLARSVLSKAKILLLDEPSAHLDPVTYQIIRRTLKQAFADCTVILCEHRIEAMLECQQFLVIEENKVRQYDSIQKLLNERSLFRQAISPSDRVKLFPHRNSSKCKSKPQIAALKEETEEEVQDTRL
T2 sequence (P13569 whole entry S492F): as the sequence (P13569 whole entry W1282C) above, with S492F, C1282W counted along it
T6 sequence (P13569 whole entry W1282L): as the sequence (P13569 whole entry W1282C) above, with C1282L counted along it
T3 sequence (P13569 1-1161 limits assumed): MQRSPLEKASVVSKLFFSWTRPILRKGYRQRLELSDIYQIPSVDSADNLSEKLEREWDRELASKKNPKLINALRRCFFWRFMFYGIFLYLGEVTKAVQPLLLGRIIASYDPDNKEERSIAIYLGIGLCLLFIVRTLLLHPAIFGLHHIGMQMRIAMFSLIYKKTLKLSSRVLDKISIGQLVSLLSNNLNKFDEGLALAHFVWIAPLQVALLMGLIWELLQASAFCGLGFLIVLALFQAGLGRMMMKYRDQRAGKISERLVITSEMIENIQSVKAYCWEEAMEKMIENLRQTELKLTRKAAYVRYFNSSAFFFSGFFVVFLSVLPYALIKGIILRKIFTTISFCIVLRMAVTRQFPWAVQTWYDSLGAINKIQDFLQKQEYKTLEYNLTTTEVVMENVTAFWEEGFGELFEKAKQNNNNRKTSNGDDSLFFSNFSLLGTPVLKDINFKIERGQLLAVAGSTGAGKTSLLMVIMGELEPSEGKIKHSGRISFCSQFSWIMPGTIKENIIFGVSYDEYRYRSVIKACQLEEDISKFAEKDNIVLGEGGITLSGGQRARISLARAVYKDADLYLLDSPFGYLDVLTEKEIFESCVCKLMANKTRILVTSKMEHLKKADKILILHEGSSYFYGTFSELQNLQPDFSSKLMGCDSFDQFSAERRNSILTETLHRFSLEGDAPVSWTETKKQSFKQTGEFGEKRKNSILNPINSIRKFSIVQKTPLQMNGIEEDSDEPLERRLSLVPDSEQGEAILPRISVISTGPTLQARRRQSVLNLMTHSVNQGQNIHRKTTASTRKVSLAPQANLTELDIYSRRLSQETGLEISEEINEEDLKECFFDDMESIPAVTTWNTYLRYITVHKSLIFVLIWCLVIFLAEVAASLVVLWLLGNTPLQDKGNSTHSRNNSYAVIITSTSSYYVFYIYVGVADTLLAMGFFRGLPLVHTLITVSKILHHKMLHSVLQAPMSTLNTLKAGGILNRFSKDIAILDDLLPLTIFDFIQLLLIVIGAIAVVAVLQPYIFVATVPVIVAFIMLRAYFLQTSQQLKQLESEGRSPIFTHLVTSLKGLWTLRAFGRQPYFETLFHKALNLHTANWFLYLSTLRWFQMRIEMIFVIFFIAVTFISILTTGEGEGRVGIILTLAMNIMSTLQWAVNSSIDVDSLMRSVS
T5 sequence (P13569 whole entry L1077P): as the sequence (P13569 whole entry W1282C) above, with L1077P, C1282W counted along it
T4 sequence (P13569 whole entry R560T): as the sequence (P13569 whole entry W1282C) above, with R560T, C1282W counted along it

Row | Compound | fold increase in chloride current with ASP-11 plus VX-770 compared to VX-770 alone (I1234del-CFTR) | short-circuit current response to modulator (S492F-CFTR) | short-circuit current response to modulator (R1162X-CFTR) | ASP-11 effect on short-circuit current (R560T-CFTR) | ASP-11 effect on short-circuit current (L1077P-CFTR) | effect on short-circuit current after forskolin (W1282L-CFTR) | effect on short-circuit current after forskolin (W1282C-CFTR) | increase in chloride current over that produced by a high concentration of VX-770 (W1282X-CFTR [1]) | Relative Vmax (%) (W1282X-CFTR [2]; Table 1, 100% Vmax corresponds to 20 μM ASP-11) | EC50 (W1282X-CFTR [2]; Table 1, piperidine-pyridoindole analogs) [nM]
1 | CCCCn1cc(S(=O)(=O)Nc2ccc(CC)cc2)c2cccnc21 [ASP-11] | 3–9 fold | no response | did not respond | absence of ASP-11 effect | absence of ASP-11 effect | little additional | significant further effects | ~ 8 fold |  | 
2 | COc1ccc2[nH]c3c(c2c1)CCNC31CCN(Cc2ccc(F)cc2F)CC1 [Compound A061] |  |  |  |  |  |  |  |  | 100 | 2000
3 | CC(C)(C)c1cc(C(C)(C)C)c(NC(=O)c2c[nH]c3ccccc3c2=O)cc1O [VX-770, ivacaftor] |  | no response | did not respond |  |  | little additional | significant further effects |  |  | 
